According to patent US12509431B2, “1,4-dihydroquinazolinone compounds and uses thereof” (Edgewise Therapeutics, Inc., priority 2022, dated 2025):

Legend:
Type in all cases: biochemical
Conditions in all cases: Table 8
[1] = system: Rabbit Skeletal myofibrils (rabbit psoas muscle); experiment: Myofibril ATPase assay (PK/LDH NADH-coupled), skeletal myofibrils
Method: (§1) Myofibril ATPase assays are known in the art to be useful in evaluating small molecules for the treatment of HCM and other cardiac indications. Myosin ATPase activity is assessed by using a coupled reaction system, in which ADP generated by the myosin ATPase function is coupled to the disappearance of NADH through the pyruvate kinase/lactate dehydrogenase (PK-LDH) system. ATPase activity produces ADP, which is used as a substrate for PK to produce pyruvate and regenerate ATP. The pyruvate is then used as a substrate by LDH to oxidize NADH to NAD+. The rate of the reaction is monitored through the time-dependent disappearance of NADH using absorbance at 340 nm, which, when the couple system is in stoichiometric excess, is directly correlated to the ATPase activity of the myosin. Inhibition of ATPase activity by the assayed compounds is indicated by a reduced rate of NADH loss, relative to vehicle-treated controls, over the experimental time window. Rabbit Skeletal and Porcine Ventricle are the primary sources of myofibril material.
(§2) Materials: The following stock solutions and reagents were used in the Myofibril ATPase Assay:
(§3) Stock Solutions of pCa buffer. Combine PIPES, CaCl2), and EGTA solutions with water. Adjust pH to 7.0 and bring final volume to 100 mL.
(§4) Buffer A & Buffer B. Prepare buffers A and B according to the table below.
(§5) Myofibril ATPase Assay Procedure: BSA, ATP, NADH, PEP, and DTT solutions were thawed at room temperature, then transferred to ice. Pellet-frozen myofibrils were transferred with approximately twice the required volume into a sufficiently large tube and capped. Myofibrils were thawed by rolling in a water bath for approximately 15 min at room temperature and cooled on ice. Buffers A and B were prepared by adjusting volumes as necessary for required number of wells and stored on ice. 0.5 μL of the compounds to be assayed were added into wells. 25 μL of Buffer A was dispensed into the wells, followed by 25 μL of Buffer B. The wells were measured for absorbance at 340 nm, using a kinetic protocol in which the wells are read every 1.5-2 min for 75 min. Assay data analysis was performed using a python script that filtered the raw data to retain those points falling between a starting and ending time and between a maximum and minimum absorbance, then used the filtered time-domain 340 nm absorbance data in each well to calculate a slope via linear regression analysis in units of mAU/min. Compound slopes were normalized between 100% and 0% activity, where 100% represented the slope of wells containing only compound vehicle, and fit to a 4-parameter logistic model. In addition to the fit parameters, the EC25% is calculated, relative to the 100% normalized value. In the case of inhibitors, EC50% is also calculated, if available. Fit parameters, calculated effective concentrations, filtered raw data, and calculated slopes were exported, in addition to compound-specific graphs of normalized ATPase activity versus concentration in μM.
Skeletal Myofibril Isolation:
Myofibrils from various animals and tissue types were acquired from a variety of sources: rabbit psoas muscle was purchased from Pel-Freez Biologicals (Rogers, AR) and porcine cardiac muscle was purchased from Exemplar Genetics. All myofibrils were prepared using a method based upon those described in Herrmann et al. (1993) and summarized here. Minced tissue was homogenized for 50 sec with a Polytron homogenizer into 10 volumes (relative to weight in grams) of Isolation Buffer A (50 mM Tris, pH 8.0, 0.1 M potassium acetate, 5 mM KCl, 2 mM DTT, 5 mM EDTA, 0.5% v/v Triton X-100) supplemented with 0.1 mM PMSF, 10 μM leupeptin, 5 μM pepstatin, and 0.5 mM sodium azide. The myofibrils were recovered by centrifugation (Beckman Allegra 6R, 1200 g, 10 min) and resuspended in 10 volumes Isolation Buffer B (Buffer A above without protease inhibitors or sodium azide). The myofibrils were further homogenized as before and recovered by centrifugation. […]

[2] = molecular target: T1, Porcine Ventricle myofibrils (left ventricle of Yucatan minipigs) (Sus scrofa, UniProt P79293); experiment: Myofibril ATPase assay (PK/LDH NADH-coupled), ventricle myofibrils
T1 construct: Myofibrils from porcine cardiac muscle was isolated from the left ventricle of Yucatan minipigs; tissue Exemplar Genetics; host or cells: left ventricle of Yucatan minipigs
T1 sequence (P79293 whole entry): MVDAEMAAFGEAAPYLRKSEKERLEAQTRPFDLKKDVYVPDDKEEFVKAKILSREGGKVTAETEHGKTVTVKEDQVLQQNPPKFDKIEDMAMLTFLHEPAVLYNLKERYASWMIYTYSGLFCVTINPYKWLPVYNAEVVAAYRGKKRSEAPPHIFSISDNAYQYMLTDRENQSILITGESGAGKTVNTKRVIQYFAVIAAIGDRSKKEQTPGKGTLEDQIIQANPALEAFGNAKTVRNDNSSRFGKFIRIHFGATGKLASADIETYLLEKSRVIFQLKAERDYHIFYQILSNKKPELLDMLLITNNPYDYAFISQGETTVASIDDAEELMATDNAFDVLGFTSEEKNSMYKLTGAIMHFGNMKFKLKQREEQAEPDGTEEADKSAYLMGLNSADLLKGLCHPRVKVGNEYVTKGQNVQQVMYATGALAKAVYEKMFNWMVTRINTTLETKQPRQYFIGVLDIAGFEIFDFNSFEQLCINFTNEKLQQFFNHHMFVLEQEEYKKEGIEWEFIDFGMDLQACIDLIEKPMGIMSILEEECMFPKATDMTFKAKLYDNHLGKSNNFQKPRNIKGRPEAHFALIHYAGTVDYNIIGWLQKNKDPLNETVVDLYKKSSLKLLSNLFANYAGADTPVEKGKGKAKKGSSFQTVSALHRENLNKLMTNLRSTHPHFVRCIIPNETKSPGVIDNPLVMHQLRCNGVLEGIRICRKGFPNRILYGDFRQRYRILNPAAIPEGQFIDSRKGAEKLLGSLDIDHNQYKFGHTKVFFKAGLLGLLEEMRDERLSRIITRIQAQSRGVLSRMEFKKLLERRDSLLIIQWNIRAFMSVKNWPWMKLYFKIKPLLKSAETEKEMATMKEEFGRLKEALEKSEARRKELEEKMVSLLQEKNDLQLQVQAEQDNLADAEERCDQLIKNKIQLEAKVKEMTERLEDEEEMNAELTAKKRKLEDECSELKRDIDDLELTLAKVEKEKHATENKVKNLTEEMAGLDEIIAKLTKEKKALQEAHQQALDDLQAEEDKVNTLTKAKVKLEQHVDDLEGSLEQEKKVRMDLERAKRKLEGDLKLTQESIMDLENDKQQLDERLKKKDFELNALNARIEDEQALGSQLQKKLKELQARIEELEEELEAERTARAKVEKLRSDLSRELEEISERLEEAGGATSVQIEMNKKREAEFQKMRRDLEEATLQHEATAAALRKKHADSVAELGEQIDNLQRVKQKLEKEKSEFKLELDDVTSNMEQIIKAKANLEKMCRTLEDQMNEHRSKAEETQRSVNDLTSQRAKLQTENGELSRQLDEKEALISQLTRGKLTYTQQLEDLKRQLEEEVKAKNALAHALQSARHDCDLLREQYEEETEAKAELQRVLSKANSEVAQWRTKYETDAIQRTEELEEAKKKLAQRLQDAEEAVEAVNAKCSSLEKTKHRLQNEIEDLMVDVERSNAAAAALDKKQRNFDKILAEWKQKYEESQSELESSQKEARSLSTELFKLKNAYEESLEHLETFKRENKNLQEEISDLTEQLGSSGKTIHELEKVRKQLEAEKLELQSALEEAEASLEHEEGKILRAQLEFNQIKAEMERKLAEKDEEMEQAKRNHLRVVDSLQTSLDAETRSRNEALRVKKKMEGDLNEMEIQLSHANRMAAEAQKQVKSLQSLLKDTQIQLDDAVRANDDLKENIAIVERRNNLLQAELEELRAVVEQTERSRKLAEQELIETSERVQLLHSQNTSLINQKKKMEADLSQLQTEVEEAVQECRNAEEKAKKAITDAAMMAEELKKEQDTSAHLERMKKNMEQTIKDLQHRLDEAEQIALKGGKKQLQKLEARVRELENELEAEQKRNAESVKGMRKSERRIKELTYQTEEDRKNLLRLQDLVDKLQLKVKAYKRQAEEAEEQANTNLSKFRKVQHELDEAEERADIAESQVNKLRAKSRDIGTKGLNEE
Method: as §1, §2, §3, §4, §5
Cardiac Myofibril Isolation:
Myofibrils from porcine cardiac muscle was isolated from the left ventricle of Yucatan minipigs. Myofibrils were prepared using a method based upon those described in Herrmann et al. (1993) and summarized here. Minced tissue was homogenized for 50 sec with a Polytron homogenizer into 10 volumes (relative to weight in grams) of Isolation Buffer A (75 mM KCl, 10 mM Imidazole, 2 mM MgCl2, 2 mM EGTA, 1 mM NaN3, 1% v/v Triton X-100) supplemented with 4 mM Phosphocreatine, 1 mM ATP, 50 mM BDM, 1 mM DTT, 1 mM Benzamide HCl, 0.1 mM PMSF, 10 μM leupeptin, 5 μM pepstatin, and 10 mM EDTA. The myofibrils were recovered by centrifugation (Beckman Allegra 6R, 1200 g, 15 min) and resuspended in 10 volumes Isolation Buffer B (Buffer A above without supplemental reagents). The myofibrils were further homogenized described above and recovered by centrifugation for 7 mins. Cellular membranes and debris were removed by 3 washes in Isolation Buffer B, centrifuging each as before. […]

Porcine Atria myofibrils = experiment: Myofibril ATPase assay (PK/LDH NADH-coupled), atria myofibrils
Method: as §5

Row | Compound | Rabbit Psoas IC25 [1] [µM] | Porcine Ventricle IC25 [2] [µM] | Porcine Atria IC25 (Porcine Atria myofibrils) [µM]
1 | O=C(CN1Cc2c(ccc(F)c2F)NC1=O)N[C@H]1CCc2cc(F)cnc21 (single isomer, unassigned) [Compound B351] | 100.00 | 100.00 | 100.00
2 | Cc1nc([C@@H](C)NC(=O)CN2Cc3c(ccc(F)c3F)NC2=O)ncc1C#N (single isomer, unassigned) [Compound B352] | 4.45 | 2.36 | 0.61
3 | Cc1nc(C#N)ncc1[C@H](C)NC(=O)CN1Cc2c(ccc(F)c2F)NC1=O [Compound B2] | 5.739 | 7.734 | 0.96
4 | Cc1nsc([C@H](C)NC(=O)CN2Cc3c(ccc(F)c3F)NC2=O)n1 [Compound B3] | 100 | 52.51 | 34.81
5 | Cc1cc(C#N)cnc1[C@H](C)NC(=O)CN1Cc2c(ccc(F)c2F)NC1=O [Compound B9] | 0.0224 | 0.0379 | 0.04
6 | C[C@@H](NC(=O)CN1Cc2c(F)cc(C#N)cc2NC1=O)c1ccc(C#N)cc1F [Compound B10] | 29.08 | 8.204 | 100.00
7 | Cc1cc(F)c2c(c1)NC(=O)N(CC(=O)N[C@H](C)c1ccc(C#N)cc1F)C2 [Compound B12] | 0.7606 | 0.143 | 0.88
8 | CCc1cc(F)cnc1[C@H](C)NC(=O)CN1Cc2c(ccc(F)c2F)NC1=O [Compound B15] | 100 | 100 | 100.00
9 | O=C(CN1Cc2c(ccc(F)c2F)NC1=O)N[C@@H]1CS(=O)(=O)c2cc(F)cc(F)c21 [Compound B18] | 100 | 100 | 2.25
10 | O=C(CN1Cc2c(ccc(F)c2F)NC1=O)N[C@H]1CS(=O)(=O)c2cc(F)cc(F)c21 [Compound B19] | 100 | 100 | 100.00
11 | CC(C)c1cc(F)cnc1[C@@H](C)NC(=O)CN1Cc2c(ccc(F)c2F)NC1=O [Compound B20] | 100 | 100 | 100.00
12 | CC(C)c1cc(F)cnc1[C@H](C)NC(=O)CN1Cc2c(ccc(F)c2F)NC1=O [Compound B21] | 100 | 100 | 100.00
13 | C[C@@H](NC(=O)CN1Cc2cc(F)cc(C#N)c2NC1=O)c1ccc(C#N)cc1F [Compound B26] | 100 | 100 | 100.00
14 | Cc1ccc2c(c1F)CN(CC(=O)N[C@H](C)c1ccc(C#N)cc1F)C(=O)N2 [Compound B30] | 100 | 100 | 0.07

Other lines, results leading:

Row | Rabbit Psoas IC25 [1] [µM] | Porcine Ventricle IC25 [2] [µM] | Porcine Atria IC25 (Porcine Atria myofibrils) [µM] | Compound
15 | 0.0201 | 0.0599 | 0.09 | Cc1nc(C#N)ncc1[C@@H](C)NC(=O)CN1Cc2c(ccc(F)c2F)NC1=O [Compound B1]
16 | 0.1318 | 0.1161 | 0.07 | N#Cc1cnc2c(c1)COC[C@H]2NC(=O)CN1Cc2c(ccc(F)c2F)NC1=O [Compound B4]
17 | 4.565 | 100 | 100.00 | N#Cc1cnc2c(c1)COC[C@@H]2NC(=O)CN1Cc2c(ccc(F)c2F)NC1=O [Compound B5]
18 | 0.1232 | 0.1483 | 0.07 | O=C(CN1Cc2c(ccc(F)c2F)NC1=O)N[C@@H]1COc2cc(F)cnc21 [Compound B6]
19 | 29.14 | 2.786 | 0.45 | O=C(CN1Cc2c(ccc(F)c2F)NC1=O)N[C@H]1COc2cc(F)cnc21 [Compound B7]
20 | 1.018 | 0.6039 | 0.43 | Cc1cc(C#N)cnc1[C@@H](C)NC(=O)CN1Cc2c(ccc(F)c2F)NC1=O [Compound B8]
21 | 49.64 | 100 | 100.00 | C[C@H](NC(=O)CN1Cc2c(F)cc(C#N)cc2NC1=O)c1ccc(C#N)cc1F [Compound B11, N-[(1S)-1-(4-Cyano-2-fluorophenyl)ethyl]-2-(7-cyano-5-fluoro-2-oxo-1,4-dihydroquinazolin-3-yl)acetamide]
22 | 0.0132 | 0.086 | 0.06 | Cc1cc(F)c2c(c1)NC(=O)N(CC(=O)N[C@@H](C)c1ccc(C#N)cc1F)C2 [Compound B13, N-[(1S)-1-(4-Cyano-2-fluorophenyl)ethyl]-2-(5-fluoro-7-methyl-2-oxo-1,4-dihydroquinazolin-3-yl)acetamide]
23 | 0.0934 | 0.0844 | 0.15 | CCc1cc(F)cnc1[C@@H](C)NC(=O)CN1Cc2c(ccc(F)c2F)NC1=O [Compound B14]
24 | 1.205 | 1.057 | 0.23 | C[C@@H](NC(=O)CN1Cc2c(ccc(F)c2F)NC1=O)c1ccc(C#N)nn1 [Compound B16]
25 | 0.9012 | 6.451 | 10.83 | Cc1cc(C#N)nnc1[C@@H](C)NC(=O)CN1Cc2c(ccc(F)c2F)NC1=O [Compound B22]
26 | 30.61 | 100 | 100.00 | Cc1ccnnc1[C@@H](C)NC(=O)CN1Cc2c(ccc(F)c2F)NC1=O [Compound B24]
27 | 0.5422 | 15.59 | 2.10 | C[C@H](NC(=O)CN1Cc2cc(F)cc(C#N)c2NC1=O)c1ccc(C#N)cc1F [Compound B27]
28 | 100 | 100 | 6.24 | C[C@@H](NC(=O)CN1Cc2cc(F)cc(F)c2NC1=O)c1ccc(C#N)cc1F [Compound B28]
29 | 0.1245 | 0.6824 | 0.11 | C[C@H](NC(=O)CN1Cc2cc(F)cc(F)c2NC1=O)c1ccc(C#N)cc1F [Compound B29]
